Where two headings read alike, the source gives them in different places.
Legend:
[1] = test system: MDR1; assay: MDCK-MDR1 permeability assay (BBB penetration potential); type: in vitro ADME; conditions: dog; for efflux ratio at 120 min, 5 μM: MDCK-MDR1, pH 7.4, MDCK-MDR1: Efflux; for Papp A→B at 120 min, 5 μM: MDCK-MDR1, pH 7.4, MDCK-MDR1: Papp A-B; for Papp B→A at 120 min, 5 μM: MDCK-MDR1, pH 7.4, MDCK-MDR1: Papp B-A
Method: (§1) Each determination is performed in duplicate. […] Analytical conditions are outlined below.

[2] = test system: MDR1-MDCK cell monolayers; assay: as above; type: in vitro ADME; conditions: dog, MDCK-MDR1, 120 min, 5 μM, pH 7.4
Method: as §1

[3] = test system: Huntingtin (HTT) transcripts; assay: Quantitative splicing assay (HTT), qPCR; type: cell-based; conditions: Homo sapiens, GM04724 (CAG 70/20) Huntington's disease patient lymphoblasts, 24 h
How it was run: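 Read-out is TaqMan qPCR on cDNA, quantifying inclusion of a cryptic exon within HTT intron 49. Cells were Huntington's patient lymphoblasts GM04724 (CAG 70/20), treated for 24 h at 0.15 nM–2.5 uM compound in 0.1% DMSO.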

[4] = test system: mHTT protein; assay: mHTT protein assay (2B7-MW1, Mesoscale Discovery); type: cell-based, human; conditions: GM04724 (CAG 70/20) Huntington's disease patient lymphoblast cells, 48 hours, 2B7-MW1 MSD; read-out: HTT Potency - Protein EC50 mHTT (average)
How it was run: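 mHTT levels were read with the 2B7-MW1 antibody pair (N17 and polyQ epitopes) on MSD after 48 h dosing, 10 μM–0.6 nM. Cells were GM04724 HD lymphoblasts (CAG 70/20). A replica plate was read by CTG for cell viability.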

[5] = qPCR HTTex49_50, read-out: HTT Potency - Splicing: E49-50 EC50 (average)
[6] = qPCR cryptic exon 49b inclusion, read-out: HTT Potency - Splicing: E49b EC50 (average)

SMILES	efflux ratio at 120 min, 5 μM [1]	Papp A→B at 120 min, 5 μM [1] [×10⁻⁶ cm/s]	Papp B→A at 120 min, 5 μM [1] [×10⁻⁶ cm/s]	MDCK-MDR1: % Recov A-B [2] [%]	MDCK-MDR1: % Recov B-A [2] [%]	EC50 [3, 5] [nM]	EC50 [3, 6] [nM]	EC50 [4] [nM]
C[C@]12CC[C@](C)(N1)[C@H](F)[C@H](Oc1ccc(-c3ccc(-c4cn[nH]c4)cc3O)nn1)C2 (single isomer, unassigned) [2-ENT1]	12	4.15	50.7	77	89	0.01 to 15	0.01 to 15	0.01 to 15
Cn1cc(-c2ccc(-c3ccc(O[C@H]4C[C@]5(C)CCC[C@@](C)(N5)[C@H]4F)nn3)c(O)c2)cn1 (single isomer, unassigned) [154-ENT1]	4	9.33	37.7	73	87	16 to 50	0.01 to 15	16 to 50
Cn1cnc2cc(O)c(-c3ccc(O[C@@H]4C[C@@]5(C)CCC[C@](C)(N5)[C@@H]4F)nn3)cc2c1=O (single isomer, unassigned) [133-ENT2]	12	5.25	60.9	92	90	51 to 100	51 to 100	0.01 to 15
Cn1cc(-c2cc(O)c(-c3ccc(O[C@@H]4C[C@H]5CCC[C@H](N5)[C@@H]4F)nn3)cc2F)cn1 (single isomer, unassigned) [82-ENT1]	4	4.12	16.8	45	72	0.01 to 15	0.01 to 15	0.01 to 15
Oc1cc(-c2cn[nH]c2)ccc1-c1ccc(O[C@H]2C[C@@H]3CCC[C@@H](N3)[C@H]2F)nn1 (single isomer, unassigned) [40-ENT1]	19	2.67	49.9	83	85	0.01 to 15	0.01 to 15	0.01 to 15
Cn1cc(-c2cc(O)c(-c3ccc(O[C@H]4C[C@@H]5CC[C@@H](N5)[C@H]4F)nn3)cc2F)cn1 (single isomer, unassigned) [61-ENT2]	3	4.5	12.2	36	71	16 to 50	0.01 to 15	0.01 to 15
Cc1ncc(-c2ccc(-c3ccc(O[C@@H]4C[C@H]5CCC[C@H](N5)[C@@H]4F)nn3)c(O)c2)o1 (single isomer, unassigned) [93-ENT1]	4	8.72	38.7	75	78	16 to 50	16 to 50	16 to 50
Cc1ncc(-c2ccc(-c3ccc(O[C@H]4C[C@@H]5CCC[C@@H](N5)[C@H]4F)nn3)c(O)c2)s1 (single isomer, unassigned) [96-ENT2]	2	6.73	11.6	35	67	16 to 50	16 to 50	16 to 50
Oc1cc(-c2cn[nH]c2)ccc1-c1ccc(O[C@@H]2C[C@H]3COC[C@H](N3)[C@@H]2F)nn1 (single isomer, unassigned) [123-ENT1]	14	6.22	87.8	86	90	101 to 500	101 to 500	101 to 500
Oc1cc(-c2cn[nH]c2)ccc1-c1ccc(O[C@H]2C[C@@H]3CC[C@@H](N3)[C@@H]2F)nn1 (single isomer, unassigned) [43-ENT1]	7	7.44	48.9	76	79	16 to 50	16 to 50	0.01 to 15
C[C@]12CCC[C@](C)(N1)[C@H](F)[C@H](Oc1ccc(-c3ccc(-c4cn[nH]c4)cc3O)nn1)C2 (single isomer, unassigned) [147-ENT2]	13	4.46	58.1	71	80	0.01 to 15	0.01 to 15	0.01 to 15
Cn1cc(-c2ccc(-c3ccc(O[C@@H]4C[C@H]5CCC[C@H](N5)[C@@H]4F)nn3)c(O)c2)cn1 (single isomer, unassigned) [1-ENT1]	6	6.16	37.9	85	84	16 to 50	16 to 50	0.01 to 15
Oc1cc(-c2cn[nH]c2)ccc1-c1ccc(O[C@@H]2C[C@H]3CCC[C@H](N3)[C@@H]2F)nn1 (single isomer, unassigned) [40-ENT2]	17	2.47	41.6	80	83	0.01 to 15	0.01 to 15	0.01 to 15
Cn1cc(-c2cc(O)c(-c3ccc(O[C@@H]4C[C@H]5CCC[C@H](N5)[C@@H]4F)nn3)cc2Cl)cn1 (single isomer, unassigned) [120-ENT1]	8	3.51	29.7	29	77	16 to 50	16 to 50	16 to 50
Cc1ccc(-c2ccc(-c3ccc(O[C@@H]4C[C@H]5CCC[C@H](N5)[C@@H]4F)nn3)c(O)c2)nn1 (single isomer, unassigned) [75-ENT1]	9	3.66	32.5	90	92	501 to 10000	501 to 10000	501 to 10000
Cn1cc(-c2ccc(-c3ccc(O[C@@H]4C[C@H]5CCC[C@H](N5)[C@@H]4F)nn3)c(O)c2)oc1=O (single isomer, unassigned) [97-ENT1]	14	3.67	50.4	83	78	16 to 50	16 to 50	0.01 to 15
Cn1ccc2cc(O)c(-c3ccc(O[C@H]4C[C@@H]5CC[C@@H](N5)[C@H]4F)nn3)cc2c1=O (single isomer, unassigned) [129-ENT1]	12	4.29	52.8	89	91	101 to 500	101 to 500	16 to 50
Cn1cc(-c2ccc(-c3ccc(O[C@H]4C[C@@H]5CCC[C@@H](N5)[C@@H]4F)nn3)c(O)c2)cn1 (single isomer, unassigned) [49-ENT2]	3	4.62	15.4	46	75	16 to 50	0.01 to 15	16 to 50
